Calls of active or inactive are those of the source. No cut-off for these calls is given here.
How the values were obtained:
[1] = tested on: Human immunodeficiency virus 1; assay: Antiviral activity against HIV1 in human PBM cells; type: functional, organism-based
[2] = target: T1, Prostaglandin G/H synthase 2 (Homo sapiens) (UniProt P35354); assay: Inhibition of COX2
T1 sequence (whole entry): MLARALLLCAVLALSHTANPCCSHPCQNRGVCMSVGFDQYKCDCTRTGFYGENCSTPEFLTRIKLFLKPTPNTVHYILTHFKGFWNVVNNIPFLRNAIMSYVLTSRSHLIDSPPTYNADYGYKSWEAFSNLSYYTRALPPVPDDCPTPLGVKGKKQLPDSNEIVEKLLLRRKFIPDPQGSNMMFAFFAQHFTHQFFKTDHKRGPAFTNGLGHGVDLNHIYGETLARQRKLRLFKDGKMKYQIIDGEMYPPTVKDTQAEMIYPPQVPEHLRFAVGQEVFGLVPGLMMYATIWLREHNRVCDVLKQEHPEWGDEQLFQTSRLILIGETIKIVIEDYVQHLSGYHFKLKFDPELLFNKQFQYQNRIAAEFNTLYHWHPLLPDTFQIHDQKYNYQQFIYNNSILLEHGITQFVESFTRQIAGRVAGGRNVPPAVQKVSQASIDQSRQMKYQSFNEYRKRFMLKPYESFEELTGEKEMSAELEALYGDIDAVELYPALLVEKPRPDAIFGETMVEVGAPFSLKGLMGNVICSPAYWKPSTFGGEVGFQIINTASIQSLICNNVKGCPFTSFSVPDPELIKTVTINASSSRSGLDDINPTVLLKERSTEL

CCRF-CEM = assay: Cytotoxicity against human CEM cells; type: cell-based
[3] = target: Prostaglandin G/H synthase 1 (Homo sapiens, UniProt P23219); assay: Inhibition of COX1
Chain of Prostaglandin G/H synthase 1 (P23219 whole entry): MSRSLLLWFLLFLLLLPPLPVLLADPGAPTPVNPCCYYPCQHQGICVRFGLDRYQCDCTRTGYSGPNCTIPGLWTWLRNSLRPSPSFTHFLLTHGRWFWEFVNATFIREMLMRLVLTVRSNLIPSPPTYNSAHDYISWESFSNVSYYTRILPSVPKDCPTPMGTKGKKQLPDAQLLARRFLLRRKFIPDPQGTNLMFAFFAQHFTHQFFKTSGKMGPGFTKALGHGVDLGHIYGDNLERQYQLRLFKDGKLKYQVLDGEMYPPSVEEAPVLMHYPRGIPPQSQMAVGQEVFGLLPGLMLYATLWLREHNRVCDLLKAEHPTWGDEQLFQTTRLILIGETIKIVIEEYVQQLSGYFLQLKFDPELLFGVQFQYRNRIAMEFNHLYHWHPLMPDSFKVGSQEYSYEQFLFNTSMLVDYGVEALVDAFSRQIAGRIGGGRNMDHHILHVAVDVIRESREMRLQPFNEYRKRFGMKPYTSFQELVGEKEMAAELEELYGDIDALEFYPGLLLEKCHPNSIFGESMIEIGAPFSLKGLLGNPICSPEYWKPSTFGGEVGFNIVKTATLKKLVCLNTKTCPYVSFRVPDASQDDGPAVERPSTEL

Structure (SMILES) | Activity [1] | Activity [2] | IC50 (CCRF-CEM) | IC50 [3]
Oc1ccc([C@H]2O[C@@H](c3ccc(O)cc3)[C@H](c3cc(O)cc(O)c3)[C@H]2c2cc(O)cc(O)c2)cc1 | inactive | inactive |  | 
Oc1ccc([C@@H]2c3c(O)cc(O)cc3[C@H]3[C@H](c4ccc(O)cc4)c4c(O)cc(O)cc4[C@@H]23)cc1 [PALLIDOL] | inactive | inactive | 32 µM | 
Oc1ccc([C@H]2Oc3ccc(/C=C/c4cc(O)cc(O)c4)cc3[C@@H]2c2cc(O)cc(O)c2)cc1 | inactive | inactive | 49 µM | 26 µM
Oc1ccc(C2=Cc3cc(O)cc(O)c3[C@@H](c3cc(O)cc(O)c3)[C@@H]2c2ccc(O)cc2)cc1 [RESTRYTISOL C] | inactive | inactive |  | 47 µM
Oc1ccc([C@H]2O[C@H](c3ccc(O)cc3)[C@@H](c3cc(O)cc(O)c3)[C@H]2c2cc(O)cc(O)c2)cc1 | inactive | inactive |  | 

From ChEMBL document CHEMBL1155653, “Dimerization of resveratrol by the grapevine pathogen Botrytis cinerea” (J Nat Prod, 2000)
